Patent publication US8404679B2, “Pyrrolidine derivatives as NK2 receptor antagonists” (Hoffmann-La Roche Inc., priority 2008, dated 2013)
pKi: −log10 of the molar value.

What follows are molecules tested against T1, human NK2 receptor (Homo sapiens, UniProt P21452) (assay: [3H]SR48968 competition binding assay). Settings: [3H]SR48968 displacement, membranes of CHO cells stably expressing recombinant human NK2 receptor; Ki from IC50 by Cheng-Prussoff.
T1 construct: purchased Perkin Elmer biosignal Inc. 6110510
T1 sequence (P21452 1-398): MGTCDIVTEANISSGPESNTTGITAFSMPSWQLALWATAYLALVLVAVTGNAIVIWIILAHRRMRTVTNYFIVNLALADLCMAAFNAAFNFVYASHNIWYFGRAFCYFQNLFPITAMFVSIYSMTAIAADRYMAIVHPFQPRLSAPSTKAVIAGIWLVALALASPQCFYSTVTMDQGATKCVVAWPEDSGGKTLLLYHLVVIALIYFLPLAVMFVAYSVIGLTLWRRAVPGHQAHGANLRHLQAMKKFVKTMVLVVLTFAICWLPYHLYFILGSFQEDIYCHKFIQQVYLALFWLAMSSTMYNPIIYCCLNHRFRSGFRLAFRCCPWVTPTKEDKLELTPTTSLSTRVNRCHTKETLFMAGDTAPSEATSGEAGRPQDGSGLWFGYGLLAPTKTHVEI
In short: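 Membranes from CHO cells stably expressing recombinant human NK2 were incubated 75 min at RT with [3H]SR48968 at its KD and 10 compound concentrations (0.0003–10 μM) in Tris-HCl pH 7.4, MnCl2, chymostatin, BSA. Filter-bound radioactivity was counted; Hill-fitted IC50 converted to Ki via Cheng-Prusoff.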

Row | pKi | SMILES
1 | 8.15 | COc1ccc(C(=O)N(C)[C@H]2CN(C(=O)C3CCNCC3)C[C@@H]2c2ccc(Cl)cc2)cc1C(F)(F)F (racemic) [Example 103, N-[(3RS,4SR)-4-(4-Chloro-phenyl)-1-(piperidine-4-carbonyl)-pyrrolidin-3-yl]-4-methoxy-N-methyl-3-trifluoromethyl-benzamide]
2 | 8.39 | COc1ccc(C(=O)N(C)[C@H]2CN(C(=O)C3CCN(C(C)C)CC3)C[C@@H]2c2ccc(Cl)cc2)cc1C(F)(F)F (racemic) [Example 104, N-[(3RS,4SR)-4-(4-Chloro-phenyl)-1-(1-isopropyl-piperidine-4-carbonyl)-pyrrolidin-3-yl]-4-methoxy-N-methyl-3-trifluoromethyl-benzamide]
3 | 9.10 | COc1ccc(C(=O)N(C)[C@H]2CN(C(=O)C3CCN(CC4CC4)CC3)C[C@@H]2c2ccc(Cl)cc2)cc1C(F)(F)F (racemic) [Example 105, N-[(3RS,4SR)-4-(4-Chloro-phenyl)-1-(1-cyclopropylmethyl-piperidine-4-carbonyl)-pyrrolidin-3-yl]-4-methoxy-N-methyl-3-trifluoromethyl-benzamide]
4 | 8.59 | CN(C(=O)c1ccc(Cl)cn1)[C@H]1CN(C(=O)C2CCN(C(=O)C3(C)CC3)CC2)C[C@@H]1c1ccc(Cl)c(Cl)c1 (racemic) [Example 108, 5-Chloro-pyridine-2-carboxylic acid {(3RS,4SR)-4-(3,4-dichloro-phenyl)-1-[1-(1-methyl-cyclopropanecarbonyl)-piperidine-4-carbonyl]-pyrrolidin-3-yl}-methyl-amide]
5 | 9.10 | CN(C(=O)c1ccc(F)c(C#N)c1)[C@H]1CN(C(=O)C2CCN(C(=O)C3(C)CC3)CC2)C[C@@H]1c1ccc(Cl)c(Cl)c1 (racemic) [Example 109, 3-Cyano-N-{(3RS,4SR)-4-(3,4-dichloro-phenyl)-1-[1-(1-methyl-cyclopropanecarbonyl)-piperidine-4-carbonyl]-pyrrolidin-3-yl}-4-fluoro-N-methyl-benzamide]
6 | 9.10 | COc1ccc(C(=O)N(C)[C@H]2CN(C(=O)C3CCN(CCC(F)(F)F)CC3)C[C@@H]2c2ccc(Cl)cc2)cc1C(F)(F)F (racemic) [Example 110, N-{(3RS,4SR)-4-(4-Chloro-phenyl)-1-[1-(3,3,3-trifluoro-propyl)-piperidine-4-carbonyl]-pyrrolidin-3-yl}-4-methoxy-N-methyl-3-trifluoromethyl-benzamide]
7 | 9.15 | COc1ccc(C(=O)N(C)[C@H]2CN(C(=O)C3CCN(CCC(C)(C)C)CC3)C[C@@H]2c2ccc(Cl)cc2)cc1C(F)(F)F (racemic) [Example 111, N-{(3RS,4SR)-4-(4-Chloro-phenyl)-1-[1-(3,3-dimethyl-butyl)-piperidine-4-carbonyl]-pyrrolidin-3-yl}-4-methoxy-N-methyl-3-trifluoromethyl-benzamide]
8 | 8.54 | CN(C(=O)CC1CCCC1)[C@H]1CN(C(=O)C2CCN(C(=O)C3(C)CC3)CC2)C[C@@H]1c1ccc(Cl)c(Cl)c1 (racemic) [Example 113, 2-Cyclopentyl-N-{(3RS,4SR)-4-(3,4-dichloro-phenyl)-1-[1-(1-methyl-cyclopropanecarbonyl)-piperidine-4-carbonyl]-pyrrolidin-3-yl}-N-methyl-acetamide]
9 | 7.76 | CN(C(=O)CCC1CC1)[C@H]1CN(C(=O)C2CCN(C(=O)C3(C)CC3)CC2)C[C@@H]1c1ccc(Cl)c(Cl)c1 (racemic) [Example 114, 3-Cyclopropyl-N-{(3RS,4SR)-4-(3,4-dichloro-phenyl)-1-[1-(1-methyl-cyclopropanecarbonyl)-piperidine-4-carbonyl]-pyrrolidin-3-yl}-N-methyl-propionamide]
10 | 7.64 | CN(C(=O)CC(C)(C)C)[C@H]1CN(C(=O)C2CCN(C(=O)C3(C)CC3)CC2)C[C@@H]1c1ccc(Cl)c(Cl)c1 (racemic) [Example 115, N-{(3RS,4SR)-4-(3,4-Dichloro-phenyl)-1-[1-(1-methyl-cyclopropanecarbonyl)-piperidine-4-carbonyl]-pyrrolidin-3-yl}-3,3,N-trimethyl-butyramide]
11 | 7.30 | CC(C)C(C(=O)N(C)[C@H]1CN(C(=O)C2CCN(C(=O)C3(C)CC3)CC2)C[C@@H]1c1ccc(Cl)c(Cl)c1)c1ccc(F)cc1 (mixture of isomers) [Example 116, N-{(3RS,4SR)-4-(3,4-Dichloro-phenyl)-1-[1-(1-methyl-cyclopropanecarbonyl)-piperidine-4-carbonyl]-pyrrolidin-3-yl}-2-(4-fluoro-phenyl)-3,N-dimethyl-butyramide]
12 | 9.10 | COc1ccc(C(=O)N(C)[C@H]2CN(C(=O)C3CCN(CC(C)(C)C)CC3)C[C@@H]2c2ccc(Cl)cc2)cc1C(F)(F)F (racemic) [Example 120, N-{(3RS,4SR)-4-(4-Chloro-phenyl)-1-[1-(2,2-dimethyl-propyl)-piperidine-4-carbonyl]-pyrrolidin-3-yl}-4-methoxy-N-methyl-3-trifluoromethyl-benzamide]
13 | 8.29 | CCN1CCC(C(=O)N2C[C@H](c3ccc(Cl)cc3)[C@@H](N(C)C(=O)c3ccc(OC)c(C(F)(F)F)c3)C2)CC1 (racemic) [Example 121, N-[(3RS,4SR)-4-(4-Chloro-phenyl)-1-(1-ethyl-piperidine-4-carbonyl)-pyrrolidin-3-yl]-4-methoxy-N-methyl-3-trifluoromethyl-benzamide]
14 | 7.09 | COc1ccc(C(=O)N[C@H]2CN(C(=O)C3CCN(C(=O)C4(C)CC4)CC3)C[C@@H]2c2ccc(Cl)cc2C)cc1C(F)(F)F (racemic) [Example 122, N-{(3RS,4SR)-4-(4-Chloro-2-methyl-phenyl)-1-[1-(1-methyl-cyclopropanecarbonyl)-piperidine-4-carbonyl]-pyrrolidin-3-yl}-4-methoxy-3-trifluoromethyl-benzamide]
15 | 7.89 | CN(C(=O)CC1CCOCC1)[C@H]1CN(C(=O)C2CCN(C(=O)C3(C)CC3)CC2)C[C@@H]1c1ccc(Cl)c(Cl)c1 (racemic) [Example 124, N-{(3RS,4SR)-4-(3,4-Dichloro-phenyl)-1-[1-(1-methyl-cyclopropanecarbonyl)-piperidine-4-carbonyl]-pyrrolidin-3-yl}-N-methyl-2-(tetrahydro-pyran-4-yl)-acetamide]
16 | 7.17 | CN(C(=O)C(C)(C)c1ccc(F)cc1)[C@H]1CN(C(=O)C2CCN(C(=O)C3(C)CC3)CC2)C[C@@H]1c1ccc(Cl)c(Cl)c1 (racemic) [Example 125, N-{(3RS,4SR)-4-(3,4-Dichloro-phenyl)-1-[1-(1-methyl-cyclopropanecarbonyl)-piperidine-4-carbonyl]-pyrrolidin-3-yl}-2-(4-fluoro-phenyl)-N-methyl-isobutyramide]
17 | 9.05 | COc1ccc(C(=O)N(C)[C@H]2CN(C(=O)C3CCN(CCCSC)CC3)C[C@@H]2c2ccc(Cl)cc2)cc1C(F)(F)F (racemic) [Example 126, N-{(3RS,4SR)-4-(4-Chloro-phenyl)-1-[1-(3-methylsulfanyl-propyl)-piperidine-4-carbonyl]-pyrrolidin-3-yl}-4-methoxy-N-methyl-3-trifluoromethyl-benzamide]
18 | 7.46 | COC1CCC(C(=O)N2C[C@H](c3ccc(Cl)c(Cl)c3)[C@@H](N(C)C(=O)Cc3ccc(F)cc3)C2)CC1 (mixture of isomers) [Example 127, N-[(3RS,4SR)-4-(3,4-Dichloro-phenyl)-1-(4-methoxy-cyclohexanecarbonyl)-pyrrolidin-3-yl]-2-(4-fluoro-phenyl)-N-methyl-acetamide]
19 | 10.00 | COc1ccc(C(=O)N(C)[C@H]2CN(C(=O)C3CCN(CCCS(C)(=O)=O)CC3)C[C@@H]2c2ccc(Cl)cc2)cc1C(F)(F)F (racemic) [Example 131, N-{(3RS,4SR)-4-(4-Chloro-phenyl)-1-[1-(3-methanesulfonyl-propyl)-piperidine-4-carbonyl]-pyrrolidin-3-yl}-4-methoxy-N-methyl-3-trifluoromethyl-benzamide]
20 | 8.89 | COc1ccc(C(=O)N(C)[C@H]2CN(C(=O)C3CCN(C(=O)OC(C)(C)C)CC3)C[C@@H]2c2ccc(Cl)c(Cl)c2)cc1C(F)(F)F (racemic) [Example 132, 4-{(3SR,4RS)-3-(3,4-Dichloro-phenyl)-4-[(4-methoxy-3-trifluoromethyl-benzoyl)-methyl-amino]-pyrrolidine-1-carbonyl}-piperidine-1-carboxylic acid tert-butyl ester]
21 | 9.70 | COc1ccc(C(=O)N(C)[C@H]2CN(C(=O)C3CCNCC3)C[C@@H]2c2ccc(Cl)c(Cl)c2)cc1C(F)(F)F (racemic) [Example 133, N-[(3RS,4SR)-4-(3,4-Dichloro-phenyl)-1-(piperidine-4-carbonyl)-pyrrolidin-3-yl]-4-methoxy-N-methyl-3-trifluoromethyl-benzamide]
22 | 7.28 | CN(C(=O)Cc1ccc(F)cc1)[C@H]1CN(C(=O)c2ccc(N3CCOCC3)cc2)C[C@@H]1c1ccc(Cl)c(Cl)c1 (racemic) [Example 134, N-[(3RS,4SR)-4-(3,4-Dichloro-phenyl)-1-(4-morpholin-4-yl-benzoyl)-pyrrolidin-3-yl]-2-(4-fluoro-phenyl)-N-methyl-acetamide]
23 | 7.07 | CN(C(=O)Cc1ccc(F)cc1)[C@H]1CN(C(=O)c2ccc(N3CCOCC3)nc2)C[C@@H]1c1ccc(Cl)c(Cl)c1 (racemic) [Example 135, N-[(3RS,4SR)-4-(3,4-Dichloro-phenyl)-1-(6-morpholin-4-yl-pyridine-3-carbonyl)-pyrrolidin-3-yl]-2-(4-fluoro-phenyl)-N-methyl-acetamide]
